Like-named read-outs stand apart in the source and are kept apart here.
Experiments:
human orexin-2 receptor = human orexin-2 receptor (Homo sapiens (Human), UniProt O43614); assay: FLIPR Ca2+ flux assay, hOX2R; type: cell-based; details: CHO cells expressing human orexin-2 receptor; agonist 70 pM Ala-6,12 orexin-A
Protocol: In a typical experiment the OX1 and OX2 receptor antagonistic activity of the compounds of the present invention was determined in accordance with the following experimental method. For intracellular calcium measurements, Chinese hamster ovary (CHO) cells expressing the rat orexin-1 receptor or the human orexin-2 receptor, are grown in Iscove's modified DMEM containing 2 mM L-glutamine, […], 1% hypoxanthine-thymidine supplement, 100 U/ml penicillin, 100 μg/ml streptomycin and 10% heat-inactivated fetal calf serum (FCS). The cells are seeded at 20,000 cells/well into Becton-Dickinson black 384-well clear bottom sterile plates coated with poly-D-lysine. All reagents were from GIBCO-Invitrogen Corp. The seeded plates are incubated overnight at 37° C. and 5% CO2. Ala-6,12 human orexin-A as the agonist is prepared as a 1 mM stock solution in 1% bovine serum albumin (BSA) and diluted in assay buffer (HBSS containing 20 mM HEPES, 0.1% BSA and 2.5 mM probenecid, pH7.4) for use in the assay at a final concentration of 70 pM. Test compounds are prepared as 10 mM stock solution in DMSO, then diluted in 384-well plates, first in DMSO, then assay buffer. On the day of the assay, cells are washed 3 times with 100 μl assay buffer and then incubated for 60 min (37° C., 5% CO2) in 60 μl assay buffer containing 1 μM Fluo-4AM ester, 0.02% pluronic acid, and 1% BSA. The dye loading solution is then aspirated and cells are washed 3 times with 100 μl assay buffer. 30 μl of that same buffer is left in each well. Within the Fluorescent Imaging Plate Reader (FLIPR, Molecular Devices), test compounds are added to the plate in a volume of 25 μl, incubated for 5 min and finally 25 μl of agonist is added. Fluorescence is measured for each well at 1 second intervals for 5 minutes and the height of each fluorescence peak is compared to the height of the fluorescence peak induced by 70 pM Ala-6,12 orexin-A with buffer in place of antagonist. […] The intrinsic orexin receptor antagonist activity of a compound which may be used in the present invention may be determined by these assays.

hOX1R = hOX1R (Homo sapiens, UniProt O43613); assay: FLIPR Ca2+ flux assay, hOX1R; type: cell-based
[1] = CHO cells, agonist 70 pM Ala-6,12 orexin-A, rat orexin-1 receptor, read-out: hOX1R FLIPR IC50

Sequence of human orexin-2 receptor (O43614 whole entry): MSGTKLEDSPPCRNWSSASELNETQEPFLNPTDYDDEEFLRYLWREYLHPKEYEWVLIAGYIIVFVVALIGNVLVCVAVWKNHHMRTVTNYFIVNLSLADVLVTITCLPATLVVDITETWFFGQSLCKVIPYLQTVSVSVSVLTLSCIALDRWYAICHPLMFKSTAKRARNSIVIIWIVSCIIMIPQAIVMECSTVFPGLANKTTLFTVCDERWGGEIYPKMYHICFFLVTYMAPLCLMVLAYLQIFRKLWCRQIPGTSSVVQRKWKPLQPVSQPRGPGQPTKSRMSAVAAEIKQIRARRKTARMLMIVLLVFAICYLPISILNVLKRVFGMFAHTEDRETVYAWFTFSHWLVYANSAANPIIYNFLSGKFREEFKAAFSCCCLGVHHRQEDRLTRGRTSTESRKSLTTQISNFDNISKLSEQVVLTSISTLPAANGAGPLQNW

Row | Compound | IC50 (human orexin-2 receptor) | IC50 (hOX1R; [1]) | IC50 (hOX1R)
1 | CC(O)c1nc([C@@H]2CC[C@@H](C)N(C(=O)c3ccccc3-n3nccn3)C2)oc1-c1ccccc1 (single isomer, unassigned) [Example 64] | 76 nM | 136 nM | 
2 | CC(O)c1nc([C@@H]2CC[C@@H](C)N(C(=O)c3ccccc3-n3nccn3)C2)oc1-c1ccccc1 (single isomer, unassigned) [Example 65] | 130 nM | 155 nM | 
3 | CCC(C)(O)c1nc([C@@H]2CC[C@@H](C)N(C(=O)c3ccsc3-n3nccn3)C2)oc1C (stereo in doubt) [Example 48, (2-(2H-1,2,3-Triazol-2-yl)thiophen-3-yl)((2R,5R)-5-(4-((S)-2-hydroxybutan-2-yl)-5-methyloxazol-2-yl)-2-methylpiperidin-1-yl)methanone] |  | 1810 nM | 
4 | C[C@@H]1CC[C@@H](c2nc(Br)co2)CN1C(=O)c1ccccc1-n1nccn1 [Example 1, (2-(2H-1,2,3-Triazol-2-yl)phenyl)((2R,5R)-5-(4-bromooxazol-2-yl)-2-methylpiperidin-1-yl)methanone] | 138 nM |  | ~7900 nM
5 | COC(=O)C1CC1c1coc([C@@H]2CC[C@@H](C)N(C(=O)c3ccccc3-n3nccn3)C2)n1 (stereo partly drawn) [Example 2, Methyl 2-(2-((3R,6R)-1-(2-(2H-1,2,3-triazol-2-yl)benzoyl)-6-methylpiperidin-3-yl)oxazol-4-yl)cyclopropanecarboxylate] | 49 nM | 3000 nM | 
6 | C[C@@H]1CC[C@@H](c2nc(C3CC3)co2)CN1C(=O)c1ccccc1-n1nccn1 [Example 4, (2-(2H-1,2,3-Triazol-2-yl)phenyl)((2R,5R)-5-(4-cyclopropyloxazol-2-yl)-2-methylpiperidin-1-yl)methanone] | 47 nM | 700 nM | 
7 | C[C@@H]1CC[C@@H](c2nc(-c3ccccc3CO)co2)CN1C(=O)c1ccccc1-n1nccn1 [Example 5, (2-(2H-1,2,3-Triazol-2-yl)phenyl)((2R,5R)-5-(4-(2-(hydroxymethyl)phenyl)oxazol-2-yl)-2-methylpiperidin-l-yl)methanone] | 30 nM | 46 nM | 
8 | C[C@@H]1CC[C@@H](c2nc(-c3cccc(F)n3)co2)CN1C(=O)c1ccccc1-n1nccn1 [Example 6, (2-(2H-1,2,3-Triazol-2-yl)phenyl)((2R, 5R)-5-(4-(6-fluoropyridin-2-yl)oxazol-2-yl)-2-methylpiperidin-1-yl)methanone] | 150 nM | 670 nM | 
9 | Cc1cccc(-c2coc([C@@H]3CC[C@@H](C)N(C(=O)c4ccccc4-n4nccn4)C3)n2)c1 [Example 7, (2-(2H-1,2,3-Triazol-2-yl)phenyl)((2R,5R)-2-methyl-5-(4-(m-tolyl)oxazol-2-yl)piperidin-1-yl)methanone] | 410 nM | 260 nM | 
10 | C[C@@H]1CC[C@@H](c2nc(C(C)(C)O)co2)CN1C(=O)c1ccccc1-n1nccn1 [Example 10, (2-(2H-1,2,3-Triazol-2-yl)phenyl)((2R,5R)-5-(4-(2-hydroxypropan-2-yl)oxazol-2-yl)-2-methylpiperidin-1-yl)methanone] | 59 nM | 2700 nM | 
11 | C[C@@H]1CC[C@@H](c2nc(C#N)c(Br)o2)CN1C(=O)c1ccccc1-n1nccn1 [Example 11, 2-((3R,6R)-1-(2-(2H-1,2,3-Triazol-2-yl)benzoyl)-6-methylpiperidin-3-yl)-5-bromooxazole-4-carbonitrile] | 350 nM | > 10000 nM | 
12 | COC(=O)c1nc([C@@H]2CC[C@@H](C)N(C(=O)c3ccccc3-n3nccn3)C2)oc1Br [Example 12, Methyl 2-((3R,6R)-1-(2-(2H-1,2,3-Triazol-2-yl)benzoyl)-6-methylpiperidin-3-yl)-5-bromooxazole-4-carboxylate] | 30 nM | 875 nM | 
13 | Cc1oc([C@@H]2CC[C@@H](C)N(C(=O)c3ccccc3-n3nccn3)C2)nc1C(C)(C)O [Example 13, (2-(2H-1,2,3-Triazol-2-yl)phenyl)((2R,5R)-5-(4-(2-hydroxypropan-2-yl)-5-methyloxazol-2-yl)-2-methylpiperidin-1-yl)methanone] | 12.8 nM | 815 nM | 
14 | C[C@@H]1CC[C@@H](c2nc(C(C)(C)O)c(C3CC3)o2)CN1C(=O)c1ccccc1-n1nccn1 [Example 14, (2-(2H-1,2,3-Triazol-2-yl)phenyl)((2R,5R)-5-(5-cyclopropyl-4-(2-hydroxypropan-2-yl)oxazol-2-yl)-2-methylpiperidin-1-yl)methanone] | 19 nM | 21 nM | 
15 | CC(C)c1oc([C@@H]2CC[C@@H](C)N(C(=O)c3ccccc3-n3nccn3)C2)nc1C(C)(C)O [Example 15, (2-(2H-1,2,3-Triazol-2-yl)phenyl)((2R,5R)-5-(4-(2-hydroxypropan-2-yl)-5-isopropyloxazol-2-yl)-2-methylpiperidin-1-yl)methanone] | 17 nM | 10 nM | 
16 | C[C@@H]1CC[C@@H](c2nc(C(C)(C)C)co2)CN1C(=O)c1ccccc1-n1nccn1 [Example 16, (2-(2H-1,2,3-Triazol-2-yl)phenyl)((2R,5R)-5-(4-(tert-butyl)oxazol-2-yl)-2-methylpiperidin-1-yl)methanone] | 60 nM | 290 nM | 
17 | C[C@@H]1CC[C@@H](c2nc(-c3ccccc3)co2)CN1C(=O)c1ccccc1-n1nccn1 [Example 17, (2-(2H-1,2,3-Triazol-2-yl)phenyl)((2R,5R)-2-methyl-5-(4-phenyloxazol-2-yl)piperidin-1-yl)methanone] | 38 nM | 120 nM | 
18 | Cc1oc([C@@H]2CC[C@@H](C)N(C(=O)c3ccccc3-n3nccn3)C2)nc1[C@@H](O)C(F)(F)F [Example 18, (2-(2H-1,2,3-Triazol-2-yl)phenyl)((2R,5R)-2-methyl-5-(5-methyl-4-((R)-2,2,2-trifluoro-1-hydroxyethyl)oxazol-2-yl)piperidin-1-yl)methanone] | 13.9 nM | 420 nM | 
19 | Cc1oc([C@@H]2CC[C@@H](C)N(C(=O)c3ccccc3-n3nccn3)C2)nc1[C@H](O)C(F)(F)F [Example 19, (2-(2H-1,2,3-triazol-2-yl)phenyl)((2R,5R)-2-methyl-5-(5-methyl-4-((S)-2,2,2-trifluoro-1-hydroxyethyl)oxazol-2-yl)piperidin-1-yl)methanone] | 24 nM | 790 nM | 
20 | Cc1oc([C@@H]2CC[C@@H](C)N(C(=O)c3ccccc3C3(C#N)CC3)C2)nc1C(C)(C)O [Example 20, 1-(2-((2R,5R)-5-(4-(2-Hydroxypropan-2-yl)-5-methyloxazol-2-yl)-2-methylpiperidine-1-carbonyl)phenyl)cyclopropanecarbonitrile] | 16.6 nM | 425 nM | 
21 | Cc1oc([C@@H]2CC[C@@H](C)N(C(=O)c3ccccc3C3(C#N)CCOCC3)C2)nc1C(C)(C)O [Example 21] | 500 nM | > 10000 nM | 
22 | CCOc1ncccc1C(=O)N1C[C@H](c2nc(C(C)(C)O)c(C)o2)CC[C@H]1C [Example 22, (2-Ethoxypyridin-3-yl)((2R,5R)-5-(4-(2-hydroxypropan-2-yl)-5-methyloxazol-2-yl)-2-methylpiperidin-1-yl)methanone] | 297 nM | > 10000 nM | 
23 | Cc1oc([C@@H]2CC[C@@H](C)N(C(=O)c3cccc4ccnn34)C2)nc1C(C)(C)O [Example 23, ((2R,5R)-5-(4-(2-Hydroxypropan-2-yl)-5-methyloxazol-2-y1)-2-methylpiperidin-1-yl)(pyrazolo[1,5-a]pyridin-7-yl)methanone] | 110 nM | > 10000 nM | 
24 | COc1ccccc1C(=O)N1C[C@H](c2nc(C(C)(C)O)c(C)o2)CC[C@H]1C [Example 31, ((2R,5R)-5-(4-(2-Hydroxypropan-2-yl)-5-methyloxazol-2-yl)-2-methypiperidin-1-yl)(2-methoxyphenyl)methanone] | 80 nM |  | 
25 | Cc1oc([C@@H]2CC[C@@H](C)N(C(=O)c3cscc3-c3ncccn3)C2)nc1C(C)(C)O [Example 36] |  | > 10000 nM | 
26 | CC[C@](C)(O)c1nc([C@@H]2CC[C@@H](C)N(C(=O)c3ccsc3-n3nccn3)C2)oc1C [Example 49, (2-(2H-1,2,3-triazol-2-yl)thiophen-3-yl)((2R,5R)-5-(4-((S)-2-hydroxybutan-2-yl)-5-methyloxazol-2-yl)-2-methylpiperidin-1-yl)methanone] |  | 1740 nM | 
27 | C[C@@H]1CC[C@@H](c2nc(CN(C)C)c(-c3ccccc3)o2)CN1C(=O)c1ccccc1-n1nccn1 [Example 66, (2-(2H-1,2,3-Triazol-2-yl)phenyl)((2R,5R)-5-(4-((dimethylamino)methyl)-5-phenyloxazol-2-yl)-2-methylpiperidin-1-yl)methanone] | 983 nM |  | 
28 | COC(=O)Cc1nc([C@@H]2CC[C@@H](C)N(C(=O)c3ccccc3-n3nccn3)C2)oc1-c1ccccc1 [Example 67] |  | 93 nM | 

Reference: patent US9828368B2 (MERCK SHARP & DOHME CORP., priority 2013, dated 2017)
